Experimental data: PubChem BioAssay AID179 (DTP/NCI, 2004)
The source made the active and inactive calls.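 The calls were made as follows: active = compounds giving half or more protection of infected cells from virus-caused growth loss, again on retest; inactive = the rest.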 Where a SMILES comes first, the peptide text is derived from it. The star is where a group is joined. Trt = c1ccc(C(c2ccccc2)(c2ccccc2)*)cc1; Boc = CC(C)(C)OC(=O)*; OBn = c1ccc(CO*)cc1; Bn = c1ccc(C*)cc1; OtBu = CC(C)(C)O*; X14 = CC(C)COC*

Test system: CEM cells HIV-1 protection, formazan growth assay
Experiment: NCI AIDS Antiviral Assay
Settings: for IC50: measured here: growth of uninfected CEM cells
Procedure, shortened: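 Protection of CEM cells against HIV-1 measured as cell growth via soluble formazan read-out, with five concentrations tested on both infected and uninfected cells; failure to protect may reflect toxicity.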

| SMILES | outcome | EC50 | IC50 |
| --- | --- | --- | --- |
| CC1=CCC[C@@]2(C)C(CC[C@@H]2C(C)/C=C/C(C)C)c2ccc(cc2C(=O)O)C[C@@H](O)CC1 (stereo partly specified) | inactive | – | – |
| CCCCCCCCCCCCCCCCOC1OC(COC(C)=O)C(OC(C)=O)C(OC(C)=O)C1O (stereo unspecified) | – | > 13.5 µM | > 13.5 µM |
| O=C(CCc1ccccc1)ON1C(=S)C(c2ccccc2)(c2ccccc2)N=C1Sc1ccccc1 | – | > 200 µM | 25.7 µM |
| CN(C)c1ccc(C=C(C(=O)c2ccccc2)C(=O)c2ccccc2)cc1 | – | > 10.7 µM | > 10.7 µM |
| Cc1[nH]c(=O)nc(N/N=C/c2ccc(Cl)cc2)c1C(=O)Nc1ccc(Cl)cc1 | inactive | – | – |
| CC1(C)OCC(COC(=O)C=[N+]=[N-])O1 (stereo unspecified) | – | > 200 µM | > 200 µM |
| COc1ccc(-n2c(=O)n(-c3ccccc3)c(=O)n2-c2ccc(OC)cc2)cc1 | – | > 200 µM | > 200 µM |
| O=C1CCCC1C(O)(C(F)(F)F)C(F)(F)F (stereo unspecified) | – | > 200 µM | > 200 µM |
| O=C(c1cc(=O)c2ccc(O)cc2o1)c1ccc(Cl)cc1Cl | – | > 204 µM | 18.6 µM |
| CN(C)c1ccc2cc3ccc(N(C)C)cc3nc2c1 | – | > 200 µM | 0.309 µM |
| O=C(c1cccs1)N(C(=S)N1CCN(c2ccccn2)CC1)C1CCCCC1 | – | > 12.6 µM | 12.3 µM |
| CC(C)(C)OC(=O)C1C(=O)C(C(=O)OC(C)(C)C)C2(C)C(C(=O)OC(C)(C)C)C(=O)C(C(=O)OC(C)(C)C)C12C (stereo unspecified) | – | > 31.6 µM | 11.2 µM |
| O=C(Cn1c2ccc(Br)cc2c2nc3ccccc3nc21)Nc1ccccc1 | – | > 100 µM | > 100 µM |
| N#Cc1[nH]c(=O)n(-c2cccc3ccccc23)c1N | – | > 200 µM | > 200 µM |
| COC(=O)c1ccc(C)cc1C1CN=NC12Cc1cccc(C)c1C2=O (stereo unspecified) | – | > 200 µM | > 200 µM |
| CCOC(=O)[C@H]1Nc2c(cccc2[N+](=O)[O-])[C@H]2OCC[C@@H]12 | – | > 447 µM | > 447 µM |
| COc1ccc2c(c1)[n+]([O-])c(/C(C)=N/NC(=O)CC#N)c[n+]2[O-] | – | > 16.6 µM | > 16.6 µM |
| CN(C)Cc1cc(N=Nc2ccccc2Cl)ccc1O | – | > 20 µM | 10.2 µM |
| CC(C)CC(NC(=O)OC(C)(C)C)C(=O)NC(CC(=O)OCc1ccccc1)C(N)=O (stereo not drawn) (Boc-Leu-Asp(OBn)-NH2; configuration not given here) | – | > 200 µM | > 200 µM |
| C[C@H](CCC(=O)O)[C@H]1CC[C@H]2[C@@H]3[C@H](O)[C@H](O)[C@@H]4C[C@H](O)CC[C@]4(C)[C@H]3CC[C@]12C | – | > 200 µM | 72.4 µM |
| C=CCN1C(=O)C(=O)N(CC=C)C(=O)C1=O | inactive | – | – |

| SMILES | outcome | EC50 | IC50 |
| --- | --- | --- | --- |
| COc1cccc(-n2nnc3c(N)nc(N)nc32)c1 | – | > 200 µM | > 200 µM |
| CC(=O)OCC1OC(n2c(=S)n(-c3ccccc3)c(=O)c3ccccc32)C(OC(C)=O)C(OC(C)=O)C1OC(C)=O (stereo unspecified) | – | > 32.4 µM | > 32.4 µM |
| CC(C)(C)c1ccc2c(c1)CNCCNCc1cc(C(C)(C)C)ccc1OCC1(CO2)COc2ccc(C(C)(C)C)cc2CNCCNCc2cc(C(C)(C)C)ccc2OC1 | – | > 1.51 µM | 0.219 µM |
| c1ccc(-n2nc3ccc4nonc4c3n2)cc1 | – | > 200 µM | > 200 µM |
| O=C(C1=CCC2(CC1)OCCO2)N(Cc1ccccc1)c1ccccc1I | – | > 200 µM | 32.4 µM |
| CC(=O)OC1CC2C(C)(C)C(=O)C=C[C@]2(C)C2CCC3(C)C(=CCC3[C@H](CO)C[C@H](O)C(=O)C(C)(C)O)[C@]12C (stereo partly specified) | – | > 47.9 µM | 18.6 µM |
| CC[C@@H]1OC2(C)CC(S(=O)(=O)c3ccccc3)CC1O2 (stereo partly specified) | – | 26.3 µM | 170 µM |
| Cc1c(C#N)c(=N)oc2ccccc12 | – | > 200 µM | 115 µM |
| O=C1CCOc2cc(ccc2O)CCN1 | – | > 200 µM | > 200 µM |
| C/C=C/C1C=Cc2ccccc2C1(C)C1=NC(C)(C)CO1 (stereo unspecified) | – | > 25.7 µM | > 25.7 µM |
| COC(=O)c1cc2c(C(=O)OC)cc1CSCc1cccc(c1)CSC2 | – | > 200 µM | > 200 µM |
| [O-]c1c(-c2cccc3ccccc23)sc(-c2cccc3ccccc23)[n+]1-c1ccccc1 | inactive | – | – |
| c1ccc2c(c1)Nc1ccccc1O2 | – | > 97.7 µM | 23.4 µM |
| C[C@@H](CC(=O)OCc1ccccc1)OC1OC(COC(=O)C(C)(C)C)C(OC(=O)C(C)(C)C)C(OC(=O)C(C)(C)C)C1OC(=O)C(C)(C)C (stereo partly specified) | – | > 200 µM | > 200 µM |
| CC(=O)N1CCc2[nH]c3ccccc3c2CC1 | – | > 575 µM | 234 µM |
| O=c1sc2ccccc2n1CCSSCCn1c(=O)sc2ccccc21 | – | > 200 µM | 9.12 µM |
| Cc1cc(Nc2ccc(S(=O)(=O)O)cc2)c2ccccc2n1 | – | > 200 µM | > 200 µM |
| CCOC(=O)c1c2cccccc2n2c(=O)cc(C)nc12 | inactive | – | – |
| COC1/C=C\OC2(C)Oc3c(C)c(O)c4c(O)c(c(CN(C)C)c(O)c4c3C2=O)NC(=O)/C(C)=C\C=C/C(C)C(O)C(C)C(O)C(C)C(OC(C)=O)C1C (stereo unspecified) | inactive | – | – |
| CCOC(=O)NNC(=O)NCc1ccccc1CNC(=O)NNC(=O)OCC | – | > 200 µM | > 200 µM |
| O=c1cc(NNc2ccc3ccccc3c2)[nH]c(=S)[nH]1 | – | > 200 µM | 38.9 µM |

| SMILES | outcome | EC50 | IC50 |
| --- | --- | --- | --- |
| O=C(/C=C/c1ccc([N+](=O)[O-])o1)N1CCN(Cc2ccccc2)CC1 | – | > 95.5 µM | 11.2 µM |
| CC(C)=Nn1cnc(C(=N)C#N)c1N | – | > 200 µM | > 200 µM |
| O=C1/C(=C/c2ccc(Cl)cc2)Sc2scc(-c3cccc([N+](=O)[O-])c3)[n+]21 | – | > 200 µM | 1.38 µM |
| CC(C)=CCN1Cc2cccc([N+](=O)[O-])c2NC[C@@H]1C | – | > 85.1 µM | > 85.1 µM |
| CSc1cc(-c2ccccn2)nc(-c2ccccn2)c1.CSc1cc(-c2ccccn2)nc(-c2ccccn2)c1.[Cu+2].[O-][Cl+3]([O-])([O-])[O-] | – | > 200 µM | 0.0631 µM |
| CN(C)C(CN)CC1=C(CC(CN)N(C)C)CCC1 (stereo unspecified) | inactive | – | – |
| CC(C)CC(NC(=O)C(CSc1ccc([N+](=O)[O-])cc1)Cc1ccccc1)C(=O)Nc1ccccc1 (stereo unspecified) | – | > 100 µM | > 100 µM |
| O=Cc1ccc(/C=C2\C=Cc3ccccc32)cc1 | – | > 58.9 µM | > 58.9 µM |
| CNC(=O)C(CC(C)C)NC(=O)CNC(=O)C(Cc1ccc(OCc2ccccc2)cc1)NC(=O)C(COCc1ccccc1)NC(C)=O (stereo unspecified) (Ac-S(Bn)Y(Bn)GL-NHMe; configuration not given here) | – | > 200 µM | 37.2 µM |
| CCOC(=O)CC(=O)Sc1ccccc1 | – | > 251 µM | 20.9 µM |
| N=C(N)N1CCc2ccccc2C1 | – | > 200 µM | > 200 µM |
| O=C(O)CCCc1cc2c(s1)-c1cccc3cccc-2c13 | – | > 33.9 µM | > 33.9 µM |
| CC(C)CCC[C@@H](C)C1CCC2[C@@H]3CC=C4C[C@@H](OS(=O)(=O)O)CC[C@]4(C)C3CC[C@@]21C (stereo partly specified) | active | – | – |
| O=C1c2ccccc2S(=O)(=O)c2ccccc21 | – | 129 µM | 501 µM |
| Cc1cc(N(CCC#N)CCC#N)ccc1N=Nc1cc(Cl)ccc1Cl | – | > 3.72 µM | 2 µM |
| CCOCc1cc(=O)c2c(O)cc3c(c2o1)CCC(C)(C)O3 | inactive | – | – |
| CO[C@H]1O[C@@H]2OC3(C)CCC4[C@H](C)CCC([C@H]1C)[C@]42OO3 (stereo partly specified) | – | > 200 µM | 112 µM |
| O=C(O)c1cc(C(=CCC23CC4CC(CC(C4)C2)C3)c2cc(Cl)c(O)c(C(=O)O)c2)cc(Cl)c1O | – | > 200 µM | 105 µM |
| COC(=O)C1=CN(C2CCCCC2)C2(c3ccccc3)c3ccccc3C(=O)OC(=O)C12 (stereo unspecified) | – | 132 µM | > 200 µM |
| CC(C)COCSCC(NC(=O)CNC(=O)C(Cc1ccccc1)NC(=O)CNC(=O)C(N)CSC(c1ccccc1)(c1ccccc1)c1ccccc1)C(=O)NC(Cc1ccccc1)C(=O)NCC(=O)OC(C)(C)C (stereo unspecified) (H-C(Trt)GFGC(X14)FG-OtBu; configuration not given here) | – | > 24 µM | > 24 µM |
| O=C1Oc2ccccc2C(=O)/C1=C/N1C(=O)N/C(=C\c2ccccc2O)C1=O | – | > 200 µM | 123 µM |

| SMILES | outcome | EC50 | IC50 |
| --- | --- | --- | --- |
| CCOc1ccccc1NC(=O)C(=O)C1C(=O)Nc2ccccc2S1=O (stereo unspecified) | inactive | – | – |
| CNc1ncnc2c1ncn2C1OC(CO)C(O)C1O (stereo unspecified) | inactive | – | – |
| CCCCc1ccc(OC2OC(CO)C(O)C(O)C2O)cc1 (stereo unspecified) | – | > 288 µM | – |
| O=c1c2cncnc2sc2nc3ccccc3n12 | – | > 200 µM | > 200 µM |
| Clc1ccc(COC(Cn2ccnc2)c2ccc(Cl)cc2Cl)c(Cl)c1 (stereo unspecified) | – | > 200 µM | 14.1 µM |
| c1ccc(OCCSCCCCCCCCCCSCCOc2ccccc2)cc1 | – | > 8.51 µM | > 8.51 µM |
| N#CC(NNC(=O)c1ccccc1O)c1c(O)ccc2ccccc12 (stereo unspecified) | – | > 40.7 µM | 3.8 µM |
| CC(C)=C[C@@H]1C[C@H](n2cc(C)c(=O)[nH]c2=O)ON1CCO | – | > 200 µM | > 200 µM |
| CN(C)CC(NC(NCS)C(=O)NCCNc1ccc(NCCNC(=O)C(NCS)NC(CN(C)C)OCCl)c2c1C(=O)c1c(O)ccc(O)c1C2=O)OCCl (stereo unspecified) | – | > 0.0501 µM | 0.0182 µM |
| COc1cc(OC)cc(Oc2nc3c(N)cc(C(F)(F)F)cc3nc2-c2ccccc2)c1 | – | > 200 µM | > 200 µM |
| C=C1C(OC(=O)CC(c2ccccc2)N(C)C)C[C@H](OC(C)=O)[C@]2(C)C1C(O)[C@@H]1CC(OC(C)=O)C(C)=C([C@@H](OC(C)=O)C2OC(C)=O)C1(C)C (stereo partly specified) | inactive | – | – |
| O=C(O)CN1CCNCCN(CC(=O)O)CC1 | – | > 100 µM | 9.77 µM |
| O=C(CCc1ccc(O)cc1)NCCc1cccc(OCc2ccccc2)c1 | – | > 200 µM | 26.3 µM |
| Cc1ccc2c(c1)nc1c3ccccc3nnn21 | – | > 16.2 µM | > 16.2 µM |
| CC(C)(C)C1CCC2c3c([nH]c4ccccc34)C3C(=O)N(c4ccc(Br)cc4)C(=O)C3C2C1 (stereo unspecified) | – | > 14.5 µM | > 14.5 µM |
| O=C(Cn1ccnc1[N+](=O)[O-])NCc1ccc(F)cc1 | – | > 178 µM | > 178 µM |
| C1COC(N2CC3CCC(CC3)C2)=N1 | – | > 200 µM | > 200 µM |
| Cc1c(C)c2c(c(N)c1C#N)C(=O)N(NC(=S)Nc1ccccc1)C2=O | – | > 200 µM | 158 µM |
| Cc1ccc(NC(=O)CC(=O)n2nc(C)c(N=Nc3ccc(S(=O)(=O)CCOS(=O)(=O)O)cc3)c2C)cc1 | – | > 200 µM | > 200 µM |
